The values that follow are results of earlier work, collected in US20140023728A1, “Iodine Liquid Soap, Dispenser and Method” (priority 2012, published 2014).

Each structure is given as a SMILES string. Read-outs that look alike come from different tables or passages of the source.

For the compound `II` [Elemental iodine, iodine], the “volume of water in which one gram dissolves” value is, setting by setting: (one gram in water at 20 degrees Celsius) 3450 mL; (one gram in water at 50 degrees Celsius) 1280 mL.
